Assays:
L1210 Leukemia = L1210 Leukemia - Test 2; assay type: in vivo, mice
B16 Melanoma = B16 Melanoma - Test 1 (ip tumor brei); assay type: in vivo, mice; details: QD 1→9, vehicle Saline

N.N.[Cl][Pt][Cl] [Cis-DDP, cis-diammine dichloroplatinum (II)]
Average Weight Change,g (L1210 Leukemia; 0.4 mg/kg/inj ip, qd 1→9): +1.6 g
Effect MST % T/C (L1210 Leukemia; 0.4 mg/kg/inj ip, qd 1→9): 100 % T/C
MST Days (L1210 Leukemia; 0.4 mg/kg/inj ip, qd 1→9): 7.0 days
Survivors Day 5(30) (L1210 Leukemia; 0.4 mg/kg/inj ip, qd 1→9): 6/6
Average Weight Change (L1210 Leukemia; 0.8 mg/kg/inj ip, qd 1→9): -0.7 g
Effect MST % T/C (L1210 Leukemia; 0.8 mg/kg/inj ip, qd 1→9): 107 % T/C
MST Days (L1210 Leukemia; 0.8 mg/kg/inj ip, qd 1→9): 7.5 days
Survivors Day 5(30) (L1210 Leukemia; 0.8 mg/kg/inj ip, qd 1→9): 6/6
Average Weight Change (L1210 Leukemia; 1.6 mg/kg/inj ip, qd 1→9): -2.2 g
Effect MST % T/C (L1210 Leukemia; 1.6 mg/kg/inj ip, qd 1→9): 157 % T/C
MST Days (L1210 Leukemia; 1.6 mg/kg/inj ip, qd 1→9): 11.0 days
Survivors Day 5(30) (L1210 Leukemia; 1.6 mg/kg/inj ip, qd 1→9): 6/6
Average Weight Change,g (L1210 Leukemia; 2 mg/kg/inj iv, d.1, 5 & 9): +1.7 g
Effect MST % T/C (L1210 Leukemia; 2 mg/kg/inj iv, d.1, 5 & 9): 100 % T/C
MST Days (L1210 Leukemia; 2 mg/kg/inj iv, d.1, 5 & 9): 7.0 days
Survivors Day 5(30) (L1210 Leukemia; 2 mg/kg/inj iv, d.1, 5 & 9): 6/6
Average Weight Change (L1210 Leukemia; 2.4 mg/kg/inj ip, qd 1→9): -3.3 g
Effect MST % T/C (L1210 Leukemia; 2.4 mg/kg/inj ip, qd 1→9): 214 % T/C
MST Days (L1210 Leukemia; 2.4 mg/kg/inj ip, qd 1→9): 15.0 days
Survivors Day 5(30) (L1210 Leukemia; 2.4 mg/kg/inj ip, qd 1→9): 6/6
Average Weight Change (L1210 Leukemia; 4 mg/kg/inj ip, d.1): -0.7 g
Effect MST % T/C (L1210 Leukemia; 4 mg/kg/inj ip, d.1): 136 % T/C
MST Days (L1210 Leukemia; 4 mg/kg/inj ip, d.1): 9.5 days
Survivors Day 5(30) (L1210 Leukemia; 4 mg/kg/inj ip, d.1): 6/6
Average Weight Change,g (L1210 Leukemia; 4 mg/kg/inj iv, d.1): +1.8 g
Effect MST % T/C (L1210 Leukemia; 4 mg/kg/inj iv, d.1): 100 % T/C
MST Days (L1210 Leukemia; 4 mg/kg/inj iv, d.1): 7.0 days
Survivors Day 5(30) (L1210 Leukemia; 4 mg/kg/inj iv, d.1): 6/6
Average Weight Change,g (L1210 Leukemia; 4 mg/kg/inj iv, d.1, 5 & 9): +0.8 g
Effect MST % T/C (L1210 Leukemia; 4 mg/kg/inj iv, d.1, 5 & 9): 100 % T/C
MST Days (L1210 Leukemia; 4 mg/kg/inj iv, d.1, 5 & 9): 7.0 days
Survivors Day 5(30) (L1210 Leukemia; 4 mg/kg/inj iv, d.1, 5 & 9): 6/6
Average Weight Change (L1210 Leukemia; 6 mg/kg/inj ip, d.1): -1.8 g
Effect MST % T/C (L1210 Leukemia; 6 mg/kg/inj ip, d.1): 171 % T/C
MST Days (L1210 Leukemia; 6 mg/kg/inj ip, d.1): 12.0 days
Survivors Day 5(30) (L1210 Leukemia; 6 mg/kg/inj ip, d.1): 6/6
Average Weight Change (L1210 Leukemia; 6 mg/kg/inj iv, d.1): -0.2 g
Effect MST % T/C (L1210 Leukemia; 6 mg/kg/inj iv, d.1): 114 % T/C
MST Days (L1210 Leukemia; 6 mg/kg/inj iv, d.1): 8.0 days
Survivors Day 5(30) (L1210 Leukemia; 6 mg/kg/inj iv, d.1): 6/6
Average Weight Change (L1210 Leukemia; 6 mg/kg/inj iv, d.1, 5 & 9): -1.1 g
Effect MST % T/C (L1210 Leukemia; 6 mg/kg/inj iv, d.1, 5 & 9): 164 % T/C
MST Days (L1210 Leukemia; 6 mg/kg/inj iv, d.1, 5 & 9): 11.5 days
Survivors Day 5(30) (L1210 Leukemia; 6 mg/kg/inj iv, d.1, 5 & 9): 6/6
Average Weight Change (L1210 Leukemia; 8 mg/kg/inj ip, d.1): -2.8 g
Effect MST % T/C (L1210 Leukemia; 8 mg/kg/inj ip, d.1): 186 % T/C
MST Days (L1210 Leukemia; 8 mg/kg/inj ip, d.1): 13.0 days
Survivors Day 5(30) (L1210 Leukemia; 8 mg/kg/inj ip, d.1): 6/6
Average Weight Change (L1210 Leukemia; 8 mg/kg/inj iv, d.1): -3.7 g
Effect MST % T/C (L1210 Leukemia; 8 mg/kg/inj iv, d.1): 129 % T/C
MST Days (L1210 Leukemia; 8 mg/kg/inj iv, d.1): 9.0 days
Survivors Day 5(30) (L1210 Leukemia; 8 mg/kg/inj iv, d.1): 6/6
Average Weight Change (L1210 Leukemia; 8 mg/kg/inj iv, d.1, 5 & 9): -2.1 g
Effect MST % T/C (L1210 Leukemia; 8 mg/kg/inj iv, d.1, 5 & 9): 179 % T/C
MST Days (L1210 Leukemia; 8 mg/kg/inj iv, d.1, 5 & 9): 12.5 days
Survivors Day 5(30) (L1210 Leukemia; 8 mg/kg/inj iv, d.1, 5 & 9): 6/6
Average Weight Change (L1210 Leukemia; 10 mg/kg/inj ip, d.1): -4.4 g
Effect MST % T/C (L1210 Leukemia; 10 mg/kg/inj ip, d.1): 214 % T/C
MST Days (L1210 Leukemia; 10 mg/kg/inj ip, d.1): 15.0 days
Survivors Day 5(30) (L1210 Leukemia; 10 mg/kg/inj ip, d.1): 6/6
Average Weight Change (L1210 Leukemia; 10 mg/kg/inj iv, d.1): -3.9 g
Effect MST % T/C (L1210 Leukemia; 10 mg/kg/inj iv, d.1): 143 % T/C
MST Days (L1210 Leukemia; 10 mg/kg/inj iv, d.1): 10.0 days
Survivors Day 5(30) (L1210 Leukemia; 10 mg/kg/inj iv, d.1): 6/6
maximum T/C (L1210 Leukemia; iv, multi-dose regimen): 179%
maximum T/C (L1210 Leukemia; multi-dose therapy ip (qd 1→9)): 207-214%
maximum T/C (L1210 Leukemia; single ip doses, ip L1210): 214%
Av. Wt. Change, g Day 5 (B16 Melanoma; 0.8 mg/kg/day ip): -1.0 g
Effect MST % T/C (B16 Melanoma; 0.8 mg/kg/day ip): 174 % T/C
MST Days (B16 Melanoma; 0.8 mg/kg/day ip): 34.0 days
Av. Wt. Change, g Day 5 (B16 Melanoma; 1.6 mg/kg/day ip): -4.3 g
Effect MST % T/C (B16 Melanoma; 1.6 mg/kg/day ip): 36 % T/C
MST Days (B16 Melanoma; 1.6 mg/kg/day ip): 7.0 days
Av. Wt. Change, g Day 5 (B16 Melanoma; 2.0 mg/kg/day ip): -4.5 g
Effect MST % T/C (B16 Melanoma; 2.0 mg/kg/day ip): 36 % T/C
MST Days (B16 Melanoma; 2.0 mg/kg/day ip): 7.0 days
Survivors Day 5(60) (B16 Melanoma; Day 5, 0.8 mg/kg/day ip): 10/10
